Where two headings read alike, the source gives them in different places.
Legend:
[1] = target: Carbonic anhydrase II (bCA II) (Bos taurus, UniProt P00921); assay: CA II inhibition assay (4-nitrophenyl acetate hydrolysis); assay type: biochemical, bovine; conditions: for inhibition of the enzyme CA II (in words): under the conditions of the assay
Experimental: For the CA II assay: Carbonic anhydrase II (bCA II, ≥3000 W-A units/mg from bovine erythrocytes) as well as 4-nitrophenyl acetate (4-NA) were purchased from Sigma.
The substrate (25 µL, [4-NA] = 0.75 mM, 0.50 mM, 0.25 mM, 0.15 mM) was added to start the enzymatic reaction. […] The relative inhibition was determined as the quotient of the slopes (compound divided by blank) of the linear ranges.

[2] = system: HT29 (colorectal adenocarcinoma); assay: SRB cytotoxicity assay, HT29; assay type: cell-based; conditions: Homo sapiens, read-out: EC50 HT29
Experimental: (§1) Expression of CA II and its involvement cancer has previously been established for A375 [82], HT29 [83] as well as for MCF-7 cells. Cell line A2780 and non-malignant fibroblasts (NIH 3T3) were employed for comparison.
(§2) NMR spectra were recorded using the Varian spectrometers (Darmstadt, Germany) DD2 and VNMRS (400 and 500 MHz, respectively). MS spectra were taken on a Advion expressionL CMS mass spectrometer (Ithaca, USA; positive ion polarity mode, solvent: methanol, solvent flow: 0.2 mL/min, spray voltage: 5.17 kV, source voltage: 77 V, APCI corona discharge: 4.2 μA, capillary temperature: 250 °C, capillary voltage: 180 V, sheath gas: N2). Thin-layer chromatography was performed on pre-coated silica gel plates supplied by Macherey-Nagel (Düren, Germany). IR spectra were recorded on a Spectrum 1000 FT-IR-spectrometer from Perkin Elmer (Rodgau, Germany). The UV/Vis-spectra were recorded on a Lambda 14 spectrometer from Perkin Elmer (Rodgau, Germany); optical rotations were measured using a JASCO-P2000 instrument (JASCO Germany GmbH, Pfungstadt, Germany) The melting points were determined using the Leica hot stage microscope Galen III (Leica Biosystems, Nussloch, Germany) and are uncorrected. The solvents were dried according to usual procedures. Microanalyses were performed with an Elementar Vario EL (CHNS) instrument (Elementar Analysensysteme GmbH, Elementar-Straße 1, D-63505 Langenselbold, Germany). All dry solvents were distilled over respective drying agents except for DMF which was distilled and stored under argon and molecular sieve. Reactions using air- or moisture-sensitive reagents were carried out under argon atmosphere in dried glassware. Triethylamine was stored over potassium hydroxide. Biological assays were performed as previously reported employing cell lines obtained from the Department of Oncology [Martin-Luther-University Halle Wittenberg; they were bought from ATCC: malignant: A 375, HT29, MCF7, and A2780; non-malignant: NIH 3T3]. Oleanolic and ursolic acid were obtained from Betulinines (Strbrna Skalice, Czech Republic) and used as received. Glycyrrhetinic acid was bought from Orgentis Chemicals GmbH (Gatersleben).
(§3) For the SRB assay: cells were seeded into 96-well plates on day zero at appropriate cell densities to prevent confluence of the cells during the period of the experiment. […] After 72 h of treatment, the supernatant media from the 96-well plates were discarded, then the cells were fixed with 10% trichloroacetic acid and allowed to rest at 4 °C. After 24 h of fixation, the cells were washed in a strip washer and then dyed with SRB solution (200 μL, 10 mM) for 20 min. Then the plates were washed four times with 1% acetic acid to remove the excess of the dye and allowed to air-dry overnight. Tris base solution (200 μL, 10 mM) was added to each well. The absorbance was measured with a 96-well plate reader from Tecan Spectra.

[3] = system: MCF-7 (breast adenocarcinoma); assay: SRB cytotoxicity assay, MCF-7; assay type: cell-based; conditions: Homo sapiens, read-out: EC50 MCF-7
Experimental: as §1, §2, §3

[4] = system: A2780 (ovarian carcinoma); assay: SRB cytotoxicity assay, A2780; assay type: cell-based; conditions: Homo sapiens, read-out: EC50 A2780
Experimental: as §1, §2, §3

[5] = system: NIH 3T3 (non-malignant fibroblasts); assay: SRB cytotoxicity assay, NIH 3T3; assay type: cell-based; conditions: Mus musculus, read-out: EC50 NIH 3T3
Experimental: as §1, §2, §3

[6] = system: A375 (epithelial melanoma); assay: SRB cytotoxicity assay, A375; assay type: cell-based; conditions: Homo sapiens, read-out: EC50 A375
Experimental: as §1, §2
as §3, with “Then the plates were washed four times with 1% acetic acid to remove the excess of the dye and allowed to air-dry overnight. Tris base solution (200 μL, 10 mM) was added to each well.” left out

[7] = HT-29, SRB assay, after 72 h of treatment
[8] = MCF7, SRB assay, after 72 h of treatment
[9] = A2780, SRB assay, after 72 h of treatment
[10] = NIH3T3, SRB assay, after 72 h of treatment, non-malignant fibroblasts
[11] = at 10 µM concentration, read-out: Inhibition [%]
[12] = A-375, SRB assay, after 72 h of treatment

Chain of Carbonic anhydrase II (bCA II) (P00921 whole entry): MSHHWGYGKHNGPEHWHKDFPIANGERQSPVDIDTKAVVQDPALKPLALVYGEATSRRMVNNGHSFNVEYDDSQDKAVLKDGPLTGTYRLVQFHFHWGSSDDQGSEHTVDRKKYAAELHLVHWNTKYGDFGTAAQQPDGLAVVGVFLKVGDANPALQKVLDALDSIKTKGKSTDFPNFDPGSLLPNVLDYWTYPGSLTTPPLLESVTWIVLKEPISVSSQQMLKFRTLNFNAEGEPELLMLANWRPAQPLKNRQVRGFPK

Row | SMILES | inhibition of the enzyme CA II (in words) [1] | melting point [°C] | EC50 [2, 7] [µM] | EC50 [3, 8] [µM] | EC50 [4, 9] [µM] | EC50 [5, 10] [µM] | also measured
1 | C=C(C)[C@@H]1CC[C@]2(C(=O)O)CC[C@]3(C)[C@H](CC[C@@H]4[C@@]5(C)CC[C@H](O)C(C)(C)[C@@H]5CC[C@]43C)[C@@H]12 [betulinic acid, reference compound] | did not inhibit the enzyme |  |  |  |  |  | 
2 | C=C(C)[C@@H]1CC[C@]2(COC(=O)CCC(=O)Nc3nnc(S(N)(=O)=O)s3)CC[C@]3(C)[C@H](CC[C@@H]4[C@@]5(C)CC[C@H](OC(C)=O)C(C)(C)[C@@H]5CC[C@]43C)[C@@H]12 [Compound 6, (3β)-3-(Acetyloxy)lup-20(29)-en-28-yl 4-{[5-(aminosulfonyl)-1,3,4-thiadiazol-2-yl]amino}-4-oxobutanoate] |  |  |  |  |  |  | EC50 ([2]; HT-29, 72 h): 10.2 ± 1.3 µM; EC50 ([3]; MCF7, 72 h): 8.9 ± 0.7 µM; EC50 ([4]; A2780, 72 h): 9.3 ± 1.2 µM; EC50 ([5]; NIH3T3, 72 h): 9.5 ± 1 µM; Ki [1]: 0.129 ± 0.02 µM; inhibition at 10 µM [1]: 93 ± 0.1%; mode of inhibition of CA II [1]: competitive inhibitor; EC50 ([6]; A-375, 72 h): 8.5 ± 0.7 µM
3 | CC1(C)[C@@H](O)CC[C@]2(C)[C@H]3C(=O)C=C4[C@@H]5C[C@@](C)(C(=O)O)CC[C@]5(C)CC[C@@]4(C)[C@]3(C)CC[C@@H]12 [glycyrrhetinic acid, reference compound] | did not inhibit the enzyme |  |  |  |  |  | 
4 | CC(=O)O[C@H]1CC[C@]2(C)[C@H]3C(=O)C=C4[C@@H]5C[C@@](C)(COC(=O)CCC(=O)Nc6nnc(S(N)(=O)=O)s6)CC[C@]5(C)CC[C@@]4(C)[C@]3(C)CC[C@H]2C1(C)C [Compound 20, (3β, 20β) 3-(Acetyloxy)-11-oxoolean-12-en-30-yl-4-{[5-(aminosulfonyl)-1,3,4-thiadiazol-2-yl]amino}-4-oxobutanoate] |  | 179 to 181 | 13 ± 1.3 | 10.5 ± 1.2 | 9.8 ± 0.8 | 11.9 ± 1.7 | inhibition at 10 µM [1, 11]: 96.8 ± 0.2%; EC50 [6, 12]: 9.2 ± 0.5 µM
5 | COc1cccc2c1C(=O)c1c(O)c3c(c(O)c1C2=O)C[C@@](O)(C(=O)CO)C[C@@H]3O[C@H]1C[C@H](N)[C@H](O)[C@H](C)O1 [DX, doxorubicin, reference compound] |  |  | 0.25 ± 0.02 | 0.1 ± 0.01 | 0.1 ± 0.01 | 0.01 ± 0.001 | 
6 | CC(=O)O[C@H]1CC[C@]2(C)[C@H]3CC=C4[C@@H]5CC(C)(C)CC[C@]5(COC(=O)CCC(=O)Nc5nnc(S(N)(=O)=O)s5)CC[C@@]4(C)[C@]3(C)CC[C@H]2C1(C)C [Compound 18, (3β) 3-(Acetyloxy)olean-12-en-28-yl-4-{[5-(aminosulfonyl)-1,3,4-thiadiazol-2-yl]amino}-4-oxobutanoate] |  | 198 to 200 | 14.2 ± 1.4 | 10.6 ± 1.4 | 11.8 ± 1.4 | 14 ± 1.5 | inhibition at 10 µM [1, 11]: 49.4 ± 0.1%; EC50 [6, 12]: 10.1 ± 0.8 µM
7 | C[C@H]1[C@H](C)CC[C@]2(C(=O)O)CC[C@]3(C)C(=CC[C@@H]4[C@@]5(C)CC[C@H](O)C(C)(C)[C@@H]5CC[C@]43C)[C@H]12 [ursolic acid, reference compound] | did not inhibit the enzyme |  |  |  |  |  | 
8 | CC1(C)CC[C@]2(C(=O)O)CC[C@]3(C)C(=CC[C@@H]4[C@@]5(C)CC[C@H](O)C(C)(C)[C@@H]5CC[C@]43C)[C@@H]2C1 [oleanolic acid, reference compound] | did not inhibit the enzyme |  |  |  |  |  | 
9 | C=C(C)[C@@H]1CC[C@]2(COC(=O)CCC(=O)O)CC[C@]3(C)[C@H](CC[C@@H]4[C@@]5(C)CC[C@H](OC(C)=O)C(C)(C)[C@@H]5CC[C@]43C)[C@@H]12 [Compound 3, 4-{[(3β)-3-(Acetyloxy)lup-20(29)-en-28-yl]oxy}-4-oxobutanoic Acid] |  | 189 to 191 |  |  |  |  | inhibition rates (CA II) [1]: less than 10%
10 | C=C(C)[C@@H]1CC[C@]2(CO)CC[C@]3(C)[C@H](CC[C@@H]4[C@@]5(C)CC[C@H](OC(C)=O)C(C)(C)[C@@H]5CC[C@]43C)[C@@H]12 [Compound 2, 3-O-Acetyl-betulin] |  |  |  |  |  |  | inhibition rates (CA II) ([1]; conditions of the assay): less than 10%
11 | C=C(C)[C@@H]1CC[C@]2(CO)CC[C@]3(C)[C@H](CC[C@@H]4[C@@]5(C)CC[C@H](O)C(C)(C)[C@@H]5CC[C@]43C)[C@@H]12 [betulin, reference compound] | did not inhibit the enzyme |  |  |  |  |  | 
12 | CC(=O)O[C@H]1CC[C@]2(C)[C@H]3CC=C4[C@@H]5[C@@H](C)[C@H](C)CC[C@]5(COC(=O)CCC(=O)Nc5nnc(S(N)(=O)=O)s5)CC[C@@]4(C)[C@]3(C)CC[C@H]2C1(C)C [Compound 19, (3β)-3-(Acetyloxy)urs-12-en-28-yl-4-{[5-(aminosulfonyl)-1,3,4-thiadiazol-2-yl]amino}4-oxobutanoate] |  | 190 to 192 | 15 ± 0.6 | 12.4 ± 0.8 | 12.5 ± 1.7 | 14.8 ± 1.5 | Ki ([1]; CA II, Dixon plot, read-out: Ki): 0.91 ± 0.17 µM; inhibition at 10 µM [1, 11]: 70.8 ± 0.2%; EC50 [6, 12]: 13.7 ± 1.1 µM
